Laboratory results published in paper PMC10647704 (Molecules, 2023).
≈ marks a conversion by molar mass, not a printed value. Like-named read-outs stand apart in the source and are kept apart here.

Legend:
[1] = test system: C. albicans S2 (FLU-resistant); test: microbe, parasite or virus in culture; assay type: cell-based
[2] = test system: C. albicans S2 (FLU-resistant); test: microbe, parasite or virus in culture; assay type: cell-based; conditions: read-out: MIC, colorimetric assay
[3] = Candida albicans, 24 h, read-out: MIC, turbidity assay
[4] = Candida albicans, 48 h, read-out: MIC, turbidity assay
[5] = Candida albicans, 48 h, read-out: Turbidity Assay IC50 C. albicans S2

Compound | MIC [1, 3] [µM] | MIC [1, 4] [µM] | IC50 [1, 5] [µM] | MIC ([2]; Candida albicans, 24 h) [µM] | MIC ([2]; Candida albicans, 48 h) [µM] | other results
CC1(C)C2CCC(Cn3[se]c4ccccc4c3=O)C1C2 (single isomer, unassigned; (-)) [CHB3] | 50 (≈ 16.7 µg/mL) | 25 (≈ 8.36 µg/mL) | 15.1 ± 0.2 | 25 (≈ 8.36 µg/mL) | 25 (≈ 8.36 µg/mL) | 
C[C@@H]1[C@@H](n2[se]c3ccccc3c2=O)C[C@H]2C[C@@H]1C2(C)C [CHB1] | 3.1 (≈ 1.04 µg/mL) | 3.1 (≈ 1.04 µg/mL) | 1.8 ± 0.1 |  |  | 
C[C@H]1[C@H](n2[se]c3ccccc3c2=O)C[C@@H]2C[C@H]1C2(C)C [CHB2] |  |  | 6.2 ± 0.1 | 6.3 (≈ 2.11 µg/mL) | 3.1 (≈ 1.04 µg/mL) | 
C[C@H]1CC[C@@H]2[C@H]([C@@H]1n1[se]c3ccccc3c1=O)C2(C)C [CHB4] | 3.1 (≈ 1.04 µg/mL) | 3.1 (≈ 1.04 µg/mL) | 1.8 ± 0.1 | 3.1 (≈ 1.04 µg/mL) | 3.1 (≈ 1.04 µg/mL) | 
C[C@@H]1C[C@H]2[C@@H](C[C@H]1n1[se]c3ccccc3c1=O)C2(C)C [CHB5] |  |  | 14.4 ± 0.5 |  |  | 
CC(C)[C@@H]1CC[C@@H](C)C[C@H]1n1[se]c2ccccc2c1=O [CHB6, (−)-N-(1R,2S,5R)-menthyl-1,2-benzizoselenazol-3(2H)-one] | 3.1 (≈ 1.04 µg/mL) | 3.1 (≈ 1.04 µg/mL) | 1.8 ± 0.1 | 6.3 (≈ 2.12 µg/mL) | 6.3 (≈ 2.12 µg/mL) | 
O=c1c2ccccc2[se]n1-c1ccccc1 [EB, Ebselen, reference compound] |  |  |  |  |  | IC50 ([1]; Abs600nm at 48 h; read-out: Turbidity Assay IC50 C. albicans S2): 14.3 ± 0.46 µM; MIC ([1]; C. albicans S2, 24 h; for FLU the lowest concentration causing 70% decrease in turbidity; read-out: MIC, turbidity assay): 25.0 µM (≈ 6.85 µg/mL); MIC ([1]; C. albicans S2, 48 h; for FLU the lowest concentration causing 70% decrease in turbidity; read-out: MIC, turbidity assay): 25.0 µM (≈ 6.85 µg/mL); MIC ([1]; Candida albicans, 24 h; read-out: MIC, turbidity assay): 25 µM (≈ 6.85 µg/mL); IC50 ([1]; Candida albicans, 48 h, Abs600nm at 48 h; read-out: Turbidity Assay IC50 C. albicans S2): ~14 µM; MIC ([1]; Candida albicans, 48 h; read-out: MIC, turbidity assay): 25 µM (≈ 6.85 µg/mL); MIC ([2]; C. albicans S2, 24 h, resazurin): 25.0 µM (≈ 6.85 µg/mL); MIC ([2]; C. albicans S2, 48 h, resazurin): 25.0 µM (≈ 6.85 µg/mL); MIC ([2]; Candida albicans, C. albicans S2, 24 h, resazurin): 25 µM (≈ 6.85 µg/mL); MIC ([2]; Candida albicans, C. albicans S2, 48 h, resazurin): 25 µM (≈ 6.85 µg/mL)
